# Values quoted from earlier work as cited in patent US20230263806A1, “METHODS OF TREATING PROTEINOPATHIES” (Woolsey Pharmaceuticals, Inc., priority 2020, published 2023).
# Where a name gives a salt, the structure may show the parent alone.
# Experiments:
# [1] = 1-hydroxy (M3) metabolite, in vivo
# [2] = target: p38 mitogen-activated protein kinase (Homo sapiens, UniProt Q16539)
# [3] = tested on: triple transgenic mouse model (APP Swedish, MAPT P301L, and PSEN1 M146V); details: 10 mg/kg/day intraperitoneally (57 mg HED)
# triple transgenic Mice = details: 10 or 12 months of age; administered in water at 30 mg/kg and 100 mg/kg
# Sequence of p38 mitogen-activated protein kinase (Q16539 2-360 limits assumed): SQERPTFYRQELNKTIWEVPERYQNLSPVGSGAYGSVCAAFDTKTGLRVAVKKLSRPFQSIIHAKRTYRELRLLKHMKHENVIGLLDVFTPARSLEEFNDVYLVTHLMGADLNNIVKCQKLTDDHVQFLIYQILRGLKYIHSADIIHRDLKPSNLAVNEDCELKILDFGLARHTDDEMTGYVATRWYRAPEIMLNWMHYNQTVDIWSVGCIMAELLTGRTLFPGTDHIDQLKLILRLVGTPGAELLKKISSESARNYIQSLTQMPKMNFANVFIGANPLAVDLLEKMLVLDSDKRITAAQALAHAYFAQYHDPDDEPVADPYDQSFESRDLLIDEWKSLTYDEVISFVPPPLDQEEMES
structure (smiles),measurement,setting,value
O=S(=O)(c1cccc2c(O)nccc12)N1CCCNCC1 [M3],half-life,[1],about 8 hours
O=c1ncn2nc(Sc3ccc(F)cc3F)ccc2c1-c1c(Cl)cccc1Cl [Neflamapimod],primary endpoint of improving episodic memory,[2]; Phase 2,failed
same,tau in the cerebrospinal fluid,[2]; Phase 2,reducing tau
same,Aβ deposition,[2]; humans,no effect
"O=S(=O)(c1cccc2cnccc12)N1CCCNCC1 [fasudil, Hexahydro-1-(5-isoquinolinesulfonyl)-1H-1,4-diazepine Monohydrochloride Hemihydrate]",amyloid plaques in vivo,[3],reduce 1 amyloid plaques
same,spatial memory,triple transgenic Mice,did not observe improvements in spatial memory
